Each block holds one compound with its values, some of them ahead of it. Activity calls are given as the source filed them. The rule behind the calls is not given here.
What was measured:
[1] = Photosensitizing ability of the compound in EtOH assessed as singlet oxygen quantum yield at 100 nM under 520nm 30 mW/cm2 light irradiation by DPBF reagent based analysis; type: functional
[2] = Photosensitizing ability of the compound in NaOH assessed as fluorescence quantum yield; type: functional
[3] = Drug localization in endoplasmic reticulum of mouse 4T1 cells assessed as increase in green fluorescence at 2 uM incubated for 12 hrs by confocal scanning microscopy analysis; type: ADME, subcellular; settings: 4t1, 12 h
[4] = Drug localization in Lipid droplet of mouse 4T1 cells assessed as increase in green fluorescence at 2 uM incubated for 12 hrs by confocal scanning microscopy analysis; type: ADME, subcellular; settings: 4t1, 12 h
[5] = Drug localization in Lipid droplet of mouse 4T1 cells assessed as increase in green fluorescence by measuring pearson correlation coefficient at 2 uM incubated for 12 hrs by confocal scanning microscopy analysis; type: ADME, subcellular; settings: 4t1, 12 h
4T1 [6] = test: (§1) Induction of intracellular ROS generation in mouse 4T1 cells assessed as increase in green fluorescence intensity at 5 to 60 nM incubated in dark for 24 hrs followed by compound removal and measured after 5 mins under 20 mW/cm2H2 white light irradiation by H2-DCFDA staining based fluorescence assay; type: functional, cell-based; settings: dose 5-60 nM
4T1 [7] = test: as §1, with “irradiation in presence of NaN3” for “irradiation”; type: functional, cell-based; settings: dose 5-60 nM
[8] = Phototoxicity in human MDA-MB-231 cells assessed as cell viability preincubated for 24 hrs followed by white light irradiation at 20 mW/cm2 for 10 mins and measured after 24 hrs by MTT assay; type: functional, cell-based; settings: MDA-MB-231, light or radiation study
[9] = Phototoxicity in mouse 4T1 cells assessed as cell viability preincubated for 24 hrs followed by white light irradiation at 20 mW/cm2 for 10 mins and measured after 24 hrs by MTT assay; type: functional, cell-based; settings: 4T1, light or radiation study
[10] = Phototoxicity in human MCF7 cells assessed as cell viability preincubated for 24 hrs followed by white light irradiation at 20 mW/cm2 for 10 mins and measured after 24 hrs by MTT assay; type: functional, cell-based; settings: MCF7, light or radiation study
[11] = Phototoxicity in human Bcap37 cells assessed as cell viability preincubated for 24 hrs followed by white light irradiation at 20 mW/cm2 for 10 mins and measured after 24 hrs by MTT assay; type: functional, cell-based; settings: Bcap37, light or radiation study
[12] = Darktoxicity in human MDA-MB-231 cells assessed as cell viability preincubated for 24 hrs followed by incubation under dark condition for 24 hrs by MTT assay; type: toxicity, cell-based; settings: time 48 hrs
[13] = Darktoxicity in human MCF7 cells assessed as cell viability preincubated for 24 hrs followed by incubation under dark condition for 24 hrs by MTT assay; type: toxicity, cell-based; settings: time 48 hrs
[14] = Darktoxicity in human Bcap37 cells assessed as cell viability preincubated for 24 hrs followed by incubation under dark condition for 24 hrs by MTT assay; type: toxicity, cell-based; settings: time 48 hrs
[15] = (§2) Photo selectivity index, ratio of CC50 for darktoxicity in human MDA-MB-231 cells assessed as cell viability preincubated for 24 hrs followed by incubation under dark condition for 24 hrs by MTT assay to IC50 for phototoxicity in human MDA-MB-231 cells assessed as cell viability preincubated for 24 hrs followed by white light irradiation at 20 mW/cm2 for 10 mins and measured after 24 hrs by MTT assay; type: toxicity, cell-based; settings: read-out: Ratio CC50/IC50
[16] = as §2, with “mouse 4T1” for “human MDA-MB-231”; type: toxicity, cell-based; settings: read-out: Ratio CC50/IC50
[17] = as §2, with “MCF7” for “MDA-MB-231”; type: toxicity, cell-based; settings: read-out: Ratio CC50/IC50
[18] = as §2, with “Bcap37” for “MDA-MB-231”; type: toxicity, cell-based; settings: read-out: Ratio CC50/IC50
[19] = Potency index, ratio of IC50 for Chlorin e6 to IC50 for test compound for phototoxicity in human MDA-MB-231 cells assessed as cell viability preincubated for 24 hrs followed by white light irradiation at 20 mW/cm2 for 10 mins and measured after 24 hrs by MTT assay; type: functional; settings: time 48 hrs
4T1 [20] = test: Induction of ferroptosis in mouse 4T1 cells assessed as cell viability at 30 nM preincubated for 24 hrs followed by white light irradiation at 20 mW/cm2 and measured after 24 hrs in presence of Z-VAD-FMK by MTT assay; type: functional, cell-based; settings: time 48.0 hrs
4T1 [21] = test: Induction of ferroptosis in mouse 4T1 cells assessed as cell viability at 30 nM preincubated for 24 hrs followed by white light irradiation at 20 mW/cm2 and measured after 24 hrs in presence of Nec-1 by MTT assay; type: functional, cell-based; settings: time 48.0 hrs
4T1 [22] = test: Induction of ferroptosis in mouse 4T1 cells assessed as cell viability at 30 nM preincubated for 24 hrs followed by white light irradiation at 20 mW/cm2 and measured after 24 hrs in presence of 3-MA by MTT assay; type: functional, cell-based; settings: time 48.0 hrs
4T1 [23] = test: Induction of ferroptosis in mouse 4T1 cells assessed as cell viability at 30 nM preincubated for 24 hrs followed by white light irradiation at 20 mW/cm2 and measured after 24 hrs in presence of Fer-1 by MTT assay; type: functional, cell-based; settings: time 48.0 hrs
4T1 [24] = test: Induction of ferroptosis in mouse 4T1 cells assessed as decrease in intracellular GSH level at 15 nM preincubated in dark condition for 24 hrs followed by 20mW/cm2 white light irradiation for 10 mins and measured after 12 hrs by colorimetric assay; type: functional, cell-based; settings: time 2170.0 min
4T1 [25] = test: Induction of ferroptosis in mouse 4T1 cells assessed as increase in MDA level at 15 nM preincubated in dark condition for 24 hrs followed by 20mW/cm2 white light irradiation for 10 mins and measured after 6 hrs by colorimetric assay; type: functional, cell-based; settings: time 1810.0 min
4T1 [26] = test: Induction of ferroptosis in mouse 4T1 cells assessed as increase in intracellular lipid peroxidation accumulation by measuring increase in green fluorescence at 30 nM incubated under dark condition for 24 hrs by C11 BODIPY 581/591 staining based analysis; type: functional, cell-based
4T1 [27] = test: Induction of ferroptosis in mouse 4T1 cells assessed as increase in intracellular lipid peroxidation accumulation by measuring increase in green fluorescence at 30 nM preincubated for 24 hrs followed by 30 mW/cm2 green light irradiation for 4 mins by C11 BODIPY 581/591 staining based analysis; type: functional, cell-based; settings: time 1444.0 min
4T1 [28] = test: Upregulation of Chac1 mRNA expression in mouse 4T1 cells at 10 nM under light irradiation by KEGG analysis; type: functional, cell-based
4T1 [29] = test: Upregulation of Hmox1 mRNA expression in mouse 4T1 cells at 10 nM under light irradiation by KEGG analysis; type: functional, cell-based
4T1 [30] = test: Upregulation of Acsl4 mRNA expression in mouse 4T1 cells at 10 nM under light irradiation by KEGG analysis; type: functional, cell-based
4T1 [31] = test: Upregulation of Chac1 mRNA expression in mouse 4T1 cells at 10 nM preincubated for 24 hrs followed by […] white light irradiation for 10 mins and measured after 12 hrs by qRT-PCR analysis; type: functional, cell-based; settings: time 2170.0 min
4T1 [32] = test: Upregulation of Hmox1 mRNA expression in mouse 4T1 cells at 10 nM preincubated for 24 hrs followed by […] white light irradiation for 10 mins and measured after 12 hrs by qRT-PCR analysis; type: functional, cell-based; settings: time 2170.0 min
4T1 [33] = test: Upregulation of […] mRNA expression in mouse 4T1 cells at 10 nM preincubated for 24 hrs followed by […] white light irradiation for 10 mins and measured after 12 hrs by qRT-PCR analysis; type: functional, cell-based; settings: time 2170.0 min
MDA-MB-231 [34] = test: Upregulation of Chac1 mRNA expression in human MDA-MB-231 cells at 10 nM preincubated for 24 hrs followed by […] white light irradiation for 10 mins and measured after 12 hrs by qRT-PCR analysis; type: functional, cell-based; settings: time 2170.0 min
MDA-MB-231 [35] = test: Upregulation of Hmox1 mRNA expression in human MDA-MB-231 cells at 10 nM preincubated for 24 hrs followed by […] white light irradiation for 10 mins and measured after 12 hrs by qRT-PCR analysis; type: functional, cell-based; settings: time 2170.0 min
MDA-MB-231 [36] = test: Upregulation of Acsl4 mRNA expression in human MDA-MB-231 cells at 10 nM preincubated for 24 hrs followed by […] white light irradiation for 10 mins and measured after 12 hrs by qRT-PCR analysis; type: functional, cell-based; settings: time 2170.0 min
[37] = Darktoxicity in mouse 4T1 cells assessed as cell viability preincubated for 24 hrs followed by incubation under dark condition for 24 hrs by MTT assay; type: toxicity, cell-based; settings: time 48 hrs

Drug uptake [3]: Active
Drug uptake [4]: Active
Activity [5]: 0.84
SMILES: CC1=C(I)C(C)=[N+]2C1=C(c1nccc3c1[nH]c1ccccc13)c1c(C)c(I)c(C)n1[B-]2(F)F
Activity [1]: 0.73
Activity [2]: 0.19
Activity (4T1 [6]): Active
Activity (4T1 [7]): inactive
IC50 [8]: 0.033 µM
IC50 [9]: 0.023 µM
IC50 [10]: 0.041 µM
IC50 [11]: 0.026 µM
CC50 at 24 h [12]: 27.6 µM
CC50 at 24 h [13]: > 100 µM
CC50 at 24 h [14]: > 100 µM
selectivity ratio [15]: 835
selectivity ratio [16]: 18
selectivity ratio [17]: > 2430
selectivity ratio [18]: > 3880
Ratio IC50 [19]: 38
Activity (4T1 [20]): inactive
Activity (4T1 [21]): inactive
Activity (4T1 [22]): inactive
Activity (4T1 [23]): Active
Activity (4T1 [24]): Active
Activity (4T1 [25]): Active
Activity (4T1 [26]): inactive
Activity (4T1 [27]): Active
Activity (4T1 [28]): Active
Activity (4T1 [29]): Active
Activity (4T1 [30]): Active
Activity (4T1 [31]): Active
Activity (4T1 [32]): Active
Activity (4T1 [33]): Active
Activity (MDA-MB-231 [34]): Active
Activity (MDA-MB-231 [35]): Active
Activity (MDA-MB-231 [36]): Active

SMILES: C=Cc1c(C)c2cc3nc(c(CC(=O)O)c4[nH]c(cc5nc(cc1[nH]2)C(C)=C5CC)c(C)c4C(=O)O)[C@@H](CCC(=O)O)[C@@H]3C [CHLORIN E6]
IC50 [8]: 1.17 µM
IC50 [9]: 0.862 µM
IC50 [10]: 0.85 µM
IC50 [11]: 1.27 µM
CC50 at 24 h [12]: > 50 µM
CC50 at 24 h [37]: > 50 µM
CC50 at 24 h [13]: > 50 µM
CC50 at 24 h [14]: > 50 µM
selectivity ratio [15]: > 43
selectivity ratio [16]: > 58
selectivity ratio [17]: > 59
selectivity ratio [18]: > 39

Source: ChEMBL document CHEMBL6103570, “An endoplasmic reticulum and lipid droplets dual-localized strategy to develop small molecular photosensitizers that induce ferroptosis during photodynamic therapy” (Eur J Med Chem, 2025)
